Data taken from publication PMC10062711 (Journal of Molecular Structure, 2023).
Converted amounts (≈) assume the structure as drawn.

How the values were obtained:
B. subtilis (MTCC-121) = assay: In vitro antibacterial MIC, microbroth dilution; assay type: cell-based; conditions: for MIC B. subtilius: 24 h incubation; for potency against B. substilius compared to the standard drug: versus Streptomycin
S. aureus (MTCC-96) = assay: In vitro antibacterial MIC, microbroth dilution; assay type: cell-based; conditions: for MIC S. aureus: 24 h incubation
K. pneumonia (MTCC2272) = assay: In vitro antibacterial MIC, microbroth dilution; assay type: cell-based, K. pneumoniae; conditions: for MIC K. pneumoniae: 24 h incubation; for inhibitory activity against K. pneumoniae compared to standard drug: versus Streptomycin
E. coli (MTCC-443) = assay: In vitro antibacterial MIC, microbroth dilution; assay type: cell-based; conditions: for MIC E. coli: 24 h incubation; for MIC: Escherichia coli, MTCC443, 24 h, read-out: MIC E. coli
P. aeruginosa (MTCC-741) = assay: In vitro antibacterial MIC, microbroth dilution; assay type: cell-based; conditions: for MIC P. aeruginosa: 24 h incubation; for MIC: Pseudomonas aeruginosa, MTCC741, 24 h, read-out: MIC P. aeruginosa
A. niger = assay: In vitro antifungal MIC; assay type: cell-based; conditions: for MIC A. niger: 72-96 h incubation; for MIC: Aspergillus niger, read-out: MIC A. niger
A. flavus = assay: In vitro antifungal MIC; assay type: cell-based; conditions: for MIC A .flavus: 72-96 h incubation; for MIC: Aspergillus flavus, read-out: MIC A .flavus
[1] = test system: Mycobacterium tuberculosis H37Rv; assay: Antitubercular activity, Resazurin Assay method; assay type: cell-based; conditions: for % Inhibition: primary screening (6.5 mg/mL)
C. albicans = assay: In vitro antifungal MIC; assay type: cell-based; conditions: for MIC C. albicans: 72-96 h incubation; for MIC: Candida albicans, read-out: MIC C. albicans
Rhizopus sp = assay: In vitro antifungal MIC; assay type: cell-based; conditions: for MIC Rhizopus sp: 72-96 h incubation; for MIC: Rhizopus, read-out: MIC Rhizopus sp
[2] = Mycobacterium tuberculosis, H37RV

3,5-Dimethyl-2,6-bis(p-chlorophenyl)−4H-pyran-4-one O-((1-phenyl-1H-1,2,3-triazol-4-yl) methyl)oxime [Compound 27]
MIC B. subtilius (B. subtilis (MTCC-121)): 50 µg/mL | MIC S. aureus (S. aureus (MTCC-96)): 25 µg/mL | MIC K. pneumoniae (K. pneumonia (MTCC2272)): 50 µg/mL | MIC E. coli (E. coli (MTCC-443)): 6.3 µg/mL | inhibitory activity against E. coli compared to Streptomycin (E. coli (MTCC-443); versus Streptomycin): two-fold | MIC P. aeruginosa (P. aeruginosa (MTCC-741)): 25 µg/mL | MIC A. niger (A. niger): 25 µg/mL | MIC A .flavus (A. flavus): 25 µg/mL | MIC ([1]; M. tb H37Rv, neutral pH): 6.25 µg/mL | % Inhibition ([1]; M. tb H37Rv): 75%

3,5-Dimethyl-2,6-bis(p-methoxyphenyl)−4H-pyran-4-one O-((1-phenyl-1H-1,2,3-triazol-4-yl)methyl)oxime [Compound 30]
MIC B. subtilius (B. subtilis (MTCC-121)): 25 µg/mL | MIC K. pneumoniae (K. pneumonia (MTCC2272)): 25 µg/mL | MIC C. albicans (C. albicans): 25 µg/mL | MIC A. niger (A. niger): 12.5 µg/mL | % Inhibition ([1]; M. tb H37Rv): 80%

3,5-Dimethyl-2,6-bis(p-methoxyphenyl)−4H-pyran-4-one O-((3-(4-chlorophenyl) isoxazol-5-yl)methyl)oxime [Compound 36]
MIC B. subtilius (B. subtilis (MTCC-121)): 50 µg/mL | MIC S. aureus (S. aureus (MTCC-96)): 50 µg/mL | MIC K. pneumoniae (K. pneumonia (MTCC2272)): 25 µg/mL | MIC E. coli (E. coli (MTCC-443)): 25 µg/mL | MIC P. aeruginosa (P. aeruginosa (MTCC-741)): 100 µg/mL | MIC C. albicans (C. albicans): 25 µg/mL | MIC A. niger (A. niger): 6.3 µg/mL | MIC A .flavus (A. flavus): 6.3 µg/mL | MIC Rhizopus sp (Rhizopus sp): 50 µg/mL | MIC ([1]; M. tb H37Rv, neutral pH): 6.25 µg/mL | % Inhibition ([1]; M. tb H37Rv): 75%

3,5-Dimethyl-2,6-bis(p-methylphenyl)−4H-pyran-4-one O-((3-(4-chlorophenyl) isoxazol-5-yl)methyl) oxime [Compound 35]
MIC B. subtilius (B. subtilis (MTCC-121)): 12.5 µg/mL | potency against B. substilius compared to the standard drug (B. subtilis (MTCC-121)): two-fold | MIC S. aureus (S. aureus (MTCC-96)): 12.5 µg/mL | MIC K. pneumoniae (K. pneumonia (MTCC2272)): 25 µg/mL | MIC E. coli (E. coli (MTCC-443)): 25 µg/mL | MIC P. aeruginosa (P. aeruginosa (MTCC-741)): 25 µg/mL | MIC C. albicans (C. albicans): 25 µg/mL | MIC A. niger (A. niger): 25 µg/mL | MIC A .flavus (A. flavus): 25 µg/mL | MIC Rhizopus sp (Rhizopus sp): 50 µg/mL | MIC ([1]; M. tb H37Rv, neutral pH): 6.25 µg/mL | % Inhibition ([1]; M. tb H37Rv): 82%

3-Ethyl-2,6-diphenyltetrahydro-4H-pyran-4-one O-ethynyl oxime [Compound 20]
MIC B. subtilius (B. subtilis (MTCC-121)): 25 µg/mL | MIC S. aureus (S. aureus (MTCC-96)): 12.5 µg/mL | activity against S. aureus compared to the standard drug (S. aureus (MTCC-96); versus Streptomycin): fourfold | MIC K. pneumoniae (K. pneumonia (MTCC2272)): 25 µg/mL | MIC E. coli (E. coli (MTCC-443)): 12.5 µg/mL | MIC P. aeruginosa (P. aeruginosa (MTCC-741)): 25 µg/mL | MIC C. albicans (C. albicans): 100 µg/mL | MIC A. niger (A. niger): 25 µg/mL | MIC A .flavus (A. flavus): 100 µg/mL | MIC Rhizopus sp (Rhizopus sp): 50 µg/mL

3-Methyl-2,6-diphenyltetrahydro-4H-pyran-4-one O-ethynyl oxime [Compound 19]
MIC B. subtilius (B. subtilis (MTCC-121)): 25 µg/mL | MIC S. aureus (S. aureus (MTCC-96)): 50 µg/mL | MIC K. pneumoniae (K. pneumonia (MTCC2272)): 25 µg/mL | MIC E. coli (E. coli (MTCC-443)): 50 µg/mL | MIC P. aeruginosa (P. aeruginosa (MTCC-741)): 100 µg/mL | MIC C. albicans (C. albicans): 100 µg/mL | MIC A. niger (A. niger): 50 µg/mL | MIC A .flavus (A. flavus): 100 µg/mL | MIC Rhizopus sp (Rhizopus sp): 100 µg/mL

CC1C(=NOCc2cn(-c3ccccc3)nn2)CC(c2ccccc2)OC1c1ccccc1 (centres unmarked) [Compound 25, 3-Methyl-2,6-diphenyltetrahydro-4H-pyran-4-one O-((1-phenyl-1H-1,2,3-triazol-4-yl)methyl)oxime]
inhibitory activity against K. pneumoniae compared to standard drug (K. pneumonia (MTCC2272)): four-fold | MIC (E. coli (MTCC-443)): 25 µg/mL (≈ 57 µM) | MIC (P. aeruginosa (MTCC-741)): 12.5 µg/mL (≈ 28.5 µM) | MIC (C. albicans): 25 µg/mL (≈ 57 µM) | MIC (A. niger): 50 µg/mL (≈ 114 µM) | MIC (A. flavus): 12.5 µg/mL (≈ 28.5 µM) | MIC (Rhizopus sp): 25 µg/mL (≈ 57 µM) | MIC [1, 2]: 6.25 µg/mL (≈ 14.3 µM) | inhibition at 6500 µg/mL [1, 2]: 75%

CCC1C(=NOCc2cn(-c3ccccc3)nn2)CC(c2ccccc2)OC1c1ccccc1 (centres unmarked) [Compound 26, 3-Ethyl-2,6-diphenyltetrahydro-4H-pyran-4-one O-((1-phenyl-1H-1,2,3-triazol-4-yl)methyl) oxime]
inhibitory activity against K. pneumoniae compared to standard drug (K. pneumonia (MTCC2272)): four-fold | MIC (E. coli (MTCC-443)): 12.5 µg/mL (≈ 27.6 µM) | MIC (P. aeruginosa (MTCC-741)): 25 µg/mL (≈ 55.2 µM) | MIC (C. albicans): 6.3 µg/mL (≈ 13.9 µM) | MIC (A. niger): 25 µg/mL (≈ 55.2 µM) | MIC (A. flavus): 6.3 µg/mL (≈ 13.9 µM) | MIC (Rhizopus sp): 12.5 µg/mL (≈ 27.6 µM) | MIC [1, 2]: 6.25 µg/mL (≈ 13.8 µM) | inhibition at 6500 µg/mL [1, 2]: 70%

CC1C(=NOCc2cc(-c3ccc(Cl)cc3)no2)CC(c2ccccc2)OC1c1ccccc1 (centres unmarked) [Compound 31, 3-Methyl-2,6-diphenyltetrahydro-4H-pyran-4-one-O-((3-(4-chlorophenyl)isoxazol-5-yl)methyl) oxime]
MIC B. subtilius (B. subtilis (MTCC-121)): 12.5 µg/mL (≈ 26.4 µM) | potency against B. substilius compared to the standard drug (B. subtilis (MTCC-121)): two-fold | MIC (E. coli (MTCC-443)): 12.5 µg/mL (≈ 26.4 µM) | MIC (P. aeruginosa (MTCC-741)): 12.5 µg/mL (≈ 26.4 µM) | MIC (C. albicans): 25 µg/mL (≈ 52.9 µM) | MIC (A. niger): 50 µg/mL (≈ 106 µM) | MIC (A. flavus): 12.5 µg/mL (≈ 26.4 µM) | MIC (Rhizopus sp): 25 µg/mL (≈ 52.9 µM) | MIC [1, 2]: 6.25 µg/mL (≈ 13.2 µM) | inhibition at 6500 µg/mL [1, 2]: 90%

CCC1C(=NOCc2cc(-c3ccc(Cl)cc3)no2)CC(c2ccccc2)OC1c1ccccc1 (centres unmarked) [Compound 32, 3-Ethyl-2,6-diphenyltetrahydro-4H-pyran-4-one O-((3-(4-chlorophenyl)isoxazol-5-yl)methyl) oxime]
MIC B. subtilius (B. subtilis (MTCC-121)): 12.5 µg/mL (≈ 25.7 µM) | potency against B. substilius compared to the standard drug (B. subtilis (MTCC-121)): two-fold | MIC (E. coli (MTCC-443)): 25 µg/mL (≈ 51.3 µM) | MIC (P. aeruginosa (MTCC-741)): 25 µg/mL (≈ 51.3 µM) | MIC (C. albicans): 25 µg/mL (≈ 51.3 µM) | MIC (A. niger): 25 µg/mL (≈ 51.3 µM) | MIC (A. flavus): 6.3 µg/mL (≈ 12.9 µM) | MIC (Rhizopus sp): 12.5 µg/mL (≈ 25.7 µM) | MIC [1, 2]: 6.25 µg/mL (≈ 12.8 µM) | inhibition at 6500 µg/mL [1, 2]: 91%

CC[C@@H](CO)NCCN[C@@H](CC)CO [EMB, Ethambutol, reference compound]
MIC [1, 2]: 1.56 µg/mL (≈ 7.64 µM) | inhibition at 6500 µg/mL [1, 2]: > 95%

NNC(=O)c1ccncc1 [INH, isoniazid, reference compound]
MIC [1, 2]: 0.1 µg/mL (≈ 0.729 µM) | inhibition at 6500 µg/mL [1, 2]: > 95%

NC(=O)c1cnccn1 [PZA, pyrazinamide, reference compound]
MIC [1, 2]: 6.25 µg/mL (≈ 50.8 µM) | inhibition at 6500 µg/mL [1, 2]: > 90%
